Source: US9815851B2, “Pyrrolo carboxamides as modulators of orphan nuclear receptor RAR-related orphan receptor-gamma (RORγ, NR1F3) activity and for the treatment of chronic inflammatory and autoimmune diseases” (PHENEX PHARMACEUTICALS AG, priority 2011, dated 2017)
Where two headings read alike, the source gives them in different places.

How the values were obtained:
RORγ = target: T1, RORγ (UniProt P51449); test: RORγ Gal4 Reporter Gene Assay in 293T cells (firefly and renilla luciferase); format: cell-based, human
T1 sequence (P51449 1-518): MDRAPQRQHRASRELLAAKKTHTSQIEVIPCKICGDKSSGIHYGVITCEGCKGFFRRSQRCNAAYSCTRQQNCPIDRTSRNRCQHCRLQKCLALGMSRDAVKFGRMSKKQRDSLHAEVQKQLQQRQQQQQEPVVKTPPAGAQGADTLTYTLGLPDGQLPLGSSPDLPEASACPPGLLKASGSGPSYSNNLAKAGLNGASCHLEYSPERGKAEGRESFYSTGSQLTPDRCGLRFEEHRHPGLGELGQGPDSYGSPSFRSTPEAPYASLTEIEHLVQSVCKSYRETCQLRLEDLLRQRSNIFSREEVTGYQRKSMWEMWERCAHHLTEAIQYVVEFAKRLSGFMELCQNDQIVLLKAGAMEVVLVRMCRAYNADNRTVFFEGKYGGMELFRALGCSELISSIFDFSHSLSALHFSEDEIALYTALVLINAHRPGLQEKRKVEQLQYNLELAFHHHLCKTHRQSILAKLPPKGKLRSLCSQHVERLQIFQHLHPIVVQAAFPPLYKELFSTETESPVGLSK

[1] = target: T2, RORγ ligand binding domain (LBD) (Homo sapiens, UniProt P51449); test: TR-FRET Activity Assay (ligand sensing, RORγ-LBD / coactivator peptide interaction, LANCE); format: biochemical
T2 construct: made in house; host or cells: E. coli BL-21 (BL3), vector pDEST15
T2 sequence (P51449 269-508 limits assumed): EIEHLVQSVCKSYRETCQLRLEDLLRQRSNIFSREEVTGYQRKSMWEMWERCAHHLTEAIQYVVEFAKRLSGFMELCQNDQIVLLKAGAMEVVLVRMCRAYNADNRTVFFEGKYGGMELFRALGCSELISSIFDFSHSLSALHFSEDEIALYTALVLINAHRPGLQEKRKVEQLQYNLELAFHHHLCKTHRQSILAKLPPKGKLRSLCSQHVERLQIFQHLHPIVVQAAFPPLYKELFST

[2] = second value of the cell, Gal4 reporter gene assay in 293T cells, firefly luciferase
[3] = third value of the cell, Gal4 reporter gene assay in 293T cells, renilla normalised luciferase
[4] = first value of the cell FRET/FF/REN, TR-FRET activity assay, read-out: pIC50 (FRET) (converted)

Compound	pIC50 (FF) (RORγ)	pIC50 (REN) (RORγ)	IC50 [1] [nM]	pIC50 (FF) (RORγ; [2])	pIC50 (REN) (RORγ; [3])	IC50 [1, 4] [nM]
Cc1c(C(=O)NCCCCC[S+](C)[O-])cc(-c2cc(C(C)(C)C)c3c(c2)C2(CCO3)CC2)n1CC1CCCCC1 (stereo not drawn) [17/79]	5.8/6.4/6.3	5.8/6.4/6.3	1580			
Cc1cc(C(C)(C)C)cc(-c2cc(C(=O)NCC(C)(C)O)c(C)n2CC2CCCCC2)c1OC(F)F [17/192]				6.5	6.4	1580
Cc1c(C(=O)NCCCCCC(=O)O)cc(-c2cc(C(C)(C)C)cc(C(C)(C)C)c2)n1CC1CCCCC1 [1/72]				7.1	7.1	1000
Cc1c(C(=O)N[C@H]2CC[C@H](C(=O)O)CC2)cc(-c2ccc(S(=O)(=O)NC(C)(C)C)c(C(F)(F)F)c2)n1CC1CCCCC1 [17/223]				7.1	7.2	398
Cc1c(C(=O)NC2CCOCC2)cc(-c2ccc(S(=O)(=O)NC(C)(C)C)c(C(C)(C)C)c2)n1CC1CCCC1 [17/212]	6.2/7.3/7.4	6.2/7.3/7.4	631			
Cc1c(S(=O)(=O)NC(C)(C)C)ccc(-c2cc(C(=O)NC3CCOCC3)c(C)n2CC2CCCCC2)c1C(F)(F)F [17/287]				7.7	7.7	631
Cc1c(C(=O)NC2CCOCC2)cc(-c2cc(C(C)(C)O)cc(C(F)(F)F)c2)n1CC1CCCCC1 [17/306]				6.8	6.9	1580
CCn1cc(-c2ccc(-c3cc(C(=O)NC4CCOCC4)c(C)n3CC3CCCCC3)cc2C(C)(C)C)cn1 [26/3]				6.6	6.8	794
Cc1c(C(=O)NCC(C)(C)O)cc(-c2cc(C(=O)N(C)C(C)(C)C)cc(C3(C)CC3)c2)n1CC1CCCCC1 [1/110]				7.3	7.4	794
Cc1c(C(=O)NC2CCOCC2)cc(-c2ccc(S(=O)(=O)NC(C)(C)C)c(C(F)(F)F)c2)n1CC1CCCCC1 [17/97]				8.0	8.0	126
Cc1c(C(=O)NCC(C)(C)O)cc(-c2cc(C(C)(C)O)cc(C3(C)CC3)c2)n1CC1CCCCC1 [17/313]	6.0/6.8/6.8	6.0/6.8/6.8	1000			
Cc1c(C(=O)NC2COC2)cc(-c2cc(C(F)(F)F)c(=O)n(CC(C)(C)C)c2)n1CC1CCCCC1 [9/14]				6.3	6.2	7940
Cc1c(S(=O)(=O)NC(C)(C)C)ccc(-c2cc(C(=O)NCC(C)(C)O)c(C)n2CC2CCCCC2)c1Cl [17/291]				7.6	7.7	398
Cc1c(C(=O)NCC(=O)O)cc(-c2cc(C(C)(C)C)cc(C(C)(C)C)c2)n1CC1CCCCC1 [1/57]				5.8	5.8	2510
Cc1c(C(=O)N[C@H]2C[C@H](C(=O)O)C2)cc(-c2cc(C(C)(C)C)cc(C(F)(F)F)c2)n1CC1CCCCC1 [17/304]				7.2	7.3	1580
Cc1c(C(=O)N[C@H]2C[C@H](C(=O)O)C2)cc(-c2cc(C(C)(C)C)cc(C3(C)CC3)c2)n1CC1CCCCC1 [17/326]				7.8	7.9	1000
Cc1c(C(=O)NCC(C)(C)NS(C)(=O)=O)cc(-c2cc(C(C)(C)C)c3c(c2)C2(CCO3)CC2)n1CC1CCCCC1 [1/103]				7.3	7.3	398
Cc1c(C(=O)NCCS(C)(=O)=O)cc(-c2ccc(S(=O)(=O)NC(C)(C)C)c(C(C)(C)C)c2)n1CC1CCCCC1 [1/130]				6.8	6.8	794
Cc1c(C(=O)NC2CCOCC2)cc(-c2ccc(S(=O)(=O)NCC3(C)COC3)c(C(F)(F)F)c2)n1CC1CCCCC1 [17/147]				6.7	6.7	794
Cc1c(C(=O)N2CCC(C)(O)CC2)cc(-c2cc(C(C)(C)C)cc(C(C)(C)C)c2)n1CC1CCCCC1 [1/37]				6.8	6.8	316

Compound	pIC50 (FF) (RORγ)	pIC50 (REN) (RORγ)	IC50 [1] [nM]	pIC50 (FF) (RORγ; [2])	pIC50 (REN) (RORγ; [3])	IC50 [1, 4] [nM]
Cc1c(C(=O)N[C@H]2C[C@H](C(=O)O)C2)cc(-c2cc(OC(F)(F)F)cc(C(=O)NC(C)(C)C)c2)n1CC1CCCCC1 [17/351]				6.8	6.9	2000
Cc1c(C(=O)NC2CCOCC2)cc(-c2ccc(S(=O)(=O)N[C@@H](C)C(F)(F)F)c(C(C)(C)C)c2)n1CC1CCCCC1 [17/151]				8.3	8.3	316
Cc1c(C(=O)NCC2(O)CCOCC2)cc(-c2ccc(S(=O)(=O)NC(C)(C)C)c3ccccc23)n1CC1CCC1 [17/243]				7.4	7.6	631
Cc1c(C(=O)NC2CCOCC2)cc(-c2ccc(S(=O)(=O)NC(C)(C)C)c3cccnc23)n1CC1CCCCC1 [17/282]				6.6	6.7	2000
Cc1c(C(=O)N[C@H]2C[C@H](C(=O)O)C2)cc(-c2cc(C(C)(C)C)nc(C3(C)CC3)n2)n1CC1CCCCC1 [17/312]				7.2	7.3	316
Cc1c(C(=O)NC2CCOCC2)cc(-c2ccc(S(=O)(=O)NC(C)(C)C)c(C(F)F)c2)n1CC1CCCCC1 [17/115]	6.5/7.9/8.0	6.5/7.9/8.0	316			
Cc1c(C(=O)NCCC(C)(C)C(=O)O)cc(-c2ccc(S(=O)(=O)N[C@@H](C)C(F)(F)F)c(C(C)(C)C)c2)n1CC1CCCCC1 [17/152]				8.2	8.2	1000
CC(C)(C)NS(=O)(=O)c1ccc(-c2cc(C(=O)NC3CCOCC3)c(Cl)n2CC2CCCCC2)c2ccccc12 [22/1]	6.8/8.4/8.4	6.8/8.4/8.4	158			
Cc1c(C(=O)NC23CCC(C(=O)O)(CC2)CC3)cc(-c2ccc(S(=O)(=O)NC(C)(C)C)c(C(F)(F)F)c2)n1CC1CCCCC1 [17/182]	6.3/7.8/7.9	6.3/7.8/7.9	501			
Cc1c(C(=O)NC2CCOCC2)cc(-c2cc(C(=O)NC(C)(C)C)cc(C(=O)NC(C)(C)C)c2)n1CC1CCCCC1 [17/75]	5.2/5.8/5.8	5.2/5.8/5.8	6310			
Cc1c(C(=O)NC2COC2)cc(-c2cc(C(=O)NC(C)C)cc(C(F)(F)F)c2)n1CC1CCCCC1 [15/2]				6.3	6.3	1000
Cc1c(C(=O)NC2CCS(=O)(=O)CC2)cc(-c2ccc(S(=O)(=O)NC(C)(C)C)c3ccccc23)n1CC1CCCCC1 [17/263]				7.9	8.0	316
CNS(=O)(=O)c1ccc(-c2cc(C(=O)NC3CCOCC3)c(C)n2CC2CCCCC2)cc1C(F)(F)F [17/110]				6.3	6.5	2000
Cc1c(C(=O)NCC(C)(C)NS(C)(=O)=O)cc(-c2cc(C(C)(C)C)cc(C3(C)CC3)c2)n1CC1CCCCC1 [17/67]	6.6/7.7/7.5	6.6/7.7/7.5	251			
Cc1c(C(=O)NC2COC2)cc(-c2cc(C3(C)CC3)cc(C3(C)CC3)c2)n1CC1CCCCC1 [1/80]				7.5	7.5	200
Cc1c(C(=O)NCC2(C(N)=O)CCOCC2)cc(-c2cc(C(C)(C)C)c3c(c2)C2(CCO3)CC2)n1CC1CCCCC1 [17/41]				8.1	8.2	398
CC(C)(C)NS(=O)(=O)c1ccc(-c2cc(C(=O)NCCC(C)(C)C(=O)O)c(Cl)n2CC2CCCCC2)cc1C(F)(F)F [Example 22, 4-(5-(4-(N-(tert-Butyl)sulfamoyl)-3-(trifluoromethyl)phenyl)-2-chloro-1-(cyclohexylmethyl)-1H-pyrrole-3-carboxamido)-2,2-dimethylbutanoic acid]				7.5	7.6	398
Cc1c(C(=O)NCCC(C)(C)C(=O)O)cc(-c2ccc(S(=O)(=O)NC(C)(C)C)c3ccccc23)n1CC1CCCCC1 [17/241]				7.7	7.8	1260
Cc1c(C(=O)NCc2nc(C(N)=O)co2)cc(-c2cc(C(C)(C)C)c3c(c2)C2(CCO3)CC2)n1CC1CCCCC1 [17/17]	6.1/6.3/6.4	6.1/6.3/6.4	794			
Cc1c(C(=O)NC2CCOCC2)cc(-c2ccc(S(=O)(=O)NC(C)(C)C)c(OCC(C)(C)C)c2)n1CC1CCCCC1 [17/165]	5.3/6.5/6.9	5.3/6.5/6.9	5010			
